Structures can show the parent of a compound that is named as a salt.
Assays:
[1] = biological target: T1, steroid 17α-hydroxylase and/or steroid C17-20 lyase (Rattus norvegicus, UniProt P11715); assay: Measurement of steroid 17α-hydroxylase and/or steroid C17-20 lyase inhibitory activity (rat testis microsome, HPLC); format: biochemical; conditions: Enzyme source: rat testis microsome; test compound 300 nM; substrate 25 μM 17α-hydroxyprogesterone; NADPH 500 μM; 20 minutes at 37° C.
T1 construct: the testis of rats (SD, male) was homogenized and centrifuged to obtain microsome; from tissue; host or cells: rat (SD, male) testis microsomes
T1 sequence (P11715 1-507): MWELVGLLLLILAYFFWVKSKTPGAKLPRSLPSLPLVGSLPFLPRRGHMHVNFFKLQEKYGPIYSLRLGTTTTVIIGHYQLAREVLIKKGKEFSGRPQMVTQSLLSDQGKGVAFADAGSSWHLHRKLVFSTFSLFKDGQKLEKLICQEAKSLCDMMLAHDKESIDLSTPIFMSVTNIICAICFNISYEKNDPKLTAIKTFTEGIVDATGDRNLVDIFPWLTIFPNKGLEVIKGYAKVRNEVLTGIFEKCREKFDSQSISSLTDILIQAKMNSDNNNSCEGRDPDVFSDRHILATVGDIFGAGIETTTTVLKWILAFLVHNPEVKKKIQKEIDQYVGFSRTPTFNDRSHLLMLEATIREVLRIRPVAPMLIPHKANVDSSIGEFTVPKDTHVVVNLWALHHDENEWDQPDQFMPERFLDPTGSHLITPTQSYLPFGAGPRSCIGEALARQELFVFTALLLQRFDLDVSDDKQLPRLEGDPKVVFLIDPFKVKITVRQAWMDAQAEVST
Description: An experiment was carried out according to the method of T. Sergejew and R. W. Hartmann (J. Enzyme Inhibition, 8, 113(1994)). That is, the testis of rats (SD, male) was homogenized and centrifuged to obtain microsome. […] After the addition of 100 μl of microsome protein solution, the protein contentration was adjusted to 0.1 mg/ml by 50 mM phosphate buffer solution (pH 7.4), 140 μl of 125 nmol NADPH solution, and 10 μl of 6.25 nmol 17α-hydroxyprogesterone, the mixture was incubated for 20 minutes at 37° C. 50 μl of 1N hydrochloric acid and 1000 μl of ethyl acetate were sequentially added to the mixture. The mixture was shaken and centrifuged. The ethyl acetate layer was washed with 250 μl of 50 mM phosphate buffer solution (pH 7.4) and 50 μl of 1N hydrochloric acid, centrifuged, and concentrated. The concentrate was dissolved in 100 μl of acetonitrile. 10 μl of this solution was charged to high performance liquid chromatography. The amounts of the substrate and the product (androstenedione and testosterone) were measured to calculate the enzyme activity. In this experiment, a sample without the test compound was provided as a control group. Steroid 17α-hydroxylase and/or steroid C17-20-lyase inhibitory activity (%) was calculated by the following equation (1) using the amounts of the substrate and the product obtained.

| Compound | inhibition at 0.3 µM [1] [%] | melting point | Inhibitory activity (%) [1] [%] |
| --- | --- | --- | --- |
| COc1ccc2c(-c3ccccn3)csc2c1.Cl [Example 3, 2-[6-methoxybenzo[b]thiophen-3-yl]pyridine hydrochloride] | 9 | 205.5 to 207 °C (dec.) |  |
| Oc1ccc2c(-c3ccncc3)csc2c1 [Example 6, 3-(4-pyridyl)benzo[b]thiophen-6-ol] | 3 | 246 to 250 °C |  |
| Oc1cccc(-c2ccc3c(-c4cccnc4)csc3c2)c1 [Example 17, 3-[3-(3-pyridyl)benzo[b]thiophen-6-yl]-phenol] | 100 | 188.5 to 189.5 °C |  |
| c1cncc(-c2ccc3c(-c4cccnc4)csc3c2)c1 [Example 20, 3-[6-(3-pyridyl)benzo[b]thiophen-3-yl]pyridine] | 100 | 131.5 to 133 °C |  |
| Cl.FC(F)(F)c1ccccc1-c1ccc2c(-c3cccnc3)csc2c1 [Example 48, 3-{[6-(2-trifluoromethyl)phenyl]benzo[b]thiophen-3-yl}pyridine hydrochloride] |  |  | 54 |
| CC(C)Nc1cccc(-c2ccc3c(-c4cccnc4)csc3c2)c1 [Example 49, isopropyl {3-[3-(3-pyridyl)benzo[b]thiophen-6-yl]phenyl}amine] | 67 |  |  |
| c1cncc(-c2csc3cc(C4CCCCC4)ccc23)c1 [Example 50, 3-(6-cyclohexylbenzo[b]thiophen-3-yl)pyridine hydrochloride] | 80 |  |  |
| CC(C)Oc1cccc(-c2ccc3c(-c4cccnc4)csc3c2)c1 [Example 51, 3-[6-(3-isopropyloxyphenyl)benzo[b]thiophen-3-yl]pyridine hydrochloride] | 37 |  |  |
| CCCc1ccc2c(-c3cccnc3)csc2c1 [Example 52, 3-(6-propylbenzo[b]thiophen-3-yl)pyridine hydrochloride] | 93 |  |  |
| O=[N+]([O-])c1cccc(-c2ccc3c(-c4cccnc4)csc3c2)c1 [Example 53, 3-[6-(3-nitrophenyl)benzo[b]thiophen-3-yl]pyridine] | 86 |  |  |
| CC(C)Nc1ccc2c(-c3cccnc3)csc2c1 [Example 54, isopropyl[3-(3-pyridyl)benzo[b]thiophen-6-yl]amine] | 98 |  |  |
| c1cncc(-c2csc3cc(N4CCOCC4)ccc23)c1 [Example 55, 4-[3-(3-pyridyl)benzo[b]thiophen-6-yl]morpholine dihydrochloride] | 94 |  |  |
| CC(=O)Nc1ccc2c(-c3cccnc3)csc2c1 [Example 56, N1-[3-(3-pyridyl)benzo[b]thiophen-6-yl]acetamide] | 63 |  |  |

Source: patent US20030130340A1, “Novel benzothiophene derivatives” (Daiichi Pharmaceutical Co. Ltd., priority 2000, published 2003)
